Measured values as given in patent EP4692062A1, “NOVEL AMIDE-BASED COMPOUND AND COMPOSITION COMPRISING SAME” (Amorepacific Corporation, priority 2023, dated 2024).

Tests used:
Format in all cases: biochemical
MMP-9 [1] = target: T1, MMP-9 (Homo sapiens, UniProt P14780); assay: MMP9 Inhibitor Screening Assay Kit (ab139448), colorimetric thiopeptide substrate, OD412; settings: T-23~34 at 0.5 uM; for inhibition at 0.5 µM: read-out: MMP-9 (%) (inhibitory efficacy, high concentration); for remaining activity at 0.5 µM: remaining enzyme activity, read-out: MMP-9 (%) (enzyme activity, high concentration)
T1 construct: purchased Abchem (so in the source)

MMP-9 [2] = target: T1, MMP-9; assay: as above; settings: compound at 50 nM; for remaining activity at 0.05 µM: remaining enzyme activity, untreated group = 100%, n=2
Procedure: Enzyme activity (%) at the same concentration was compared with treatment with 0.5 µM MMP-1 activity and 50 nM MMP-2 and MMP-9 activity (n=2). Here, enzyme activity (%) refers to the enzyme activity (%) of the experimental group when the untreated group is considered to have 100% enzyme activity. To evaluate the effect of the new compound on the enzyme activity, the color change was measured by following the provided protocol using a kit sold by Abchem as follows. Enzyme activity was obtained by comparing absorbance per minute with the untreated group. • MMP1 Inhibitor Screening Assay Kit (ab139443) • MMP2 Inhibitor Screening Assay Kit (ab139446) • MMP9 Inhibitor Screening Assay Kit (ab139448) As MMP activity increases, the substrate is decomposed and the OD412 level increases. Therefore, the change in OD412 level (OD value) per minute was measured and the value was obtained according to the enzyme activity calculation formula below. Here, OD412 means optical density or absorbance at 412 nm. • Thiopeptide (Ac-PLG-[2-mercapto-4-methyl-pentanoyl]-LG-OC2H5) as a chromogenic substrate. • The MMP cleavage site peptide bond was replaced by the thioester bond of the thiopeptide. • Hydrolysis of this bond by MMP generates a sulfhydryl group, which reacts with DTNB [5,5'-dithiobis(2-nitrobenzoic acid), Ellman's reagent] to form 2-nitro-5-thiobenzoic acid. , which can be measured by its absorbance at 412 nm. (ε=13,600 M^-1cm^-1 above pH 6.0) New compound enzyme activity(%) = (Vnew compound/Vuntreated group)*100 [formula] V = change in OD value per minute

MMP-2 [3] = target: T2, MMP-2 (Homo sapiens, UniProt P08253); assay: MMP2 Inhibitor Screening Assay Kit (ab139446), colorimetric thiopeptide substrate, OD412; settings: T-23~34 at 0.5 uM; for inhibition at 0.5 µM: read-out: MMP-2 (%) (inhibitory efficacy, high concentration); for remaining activity at 0.5 µM: remaining enzyme activity, read-out: MMP-2 (%) (enzyme activity, high concentration)
T2 construct: purchased Abchem (so in the source)
T2 sequence (P08253 110-660): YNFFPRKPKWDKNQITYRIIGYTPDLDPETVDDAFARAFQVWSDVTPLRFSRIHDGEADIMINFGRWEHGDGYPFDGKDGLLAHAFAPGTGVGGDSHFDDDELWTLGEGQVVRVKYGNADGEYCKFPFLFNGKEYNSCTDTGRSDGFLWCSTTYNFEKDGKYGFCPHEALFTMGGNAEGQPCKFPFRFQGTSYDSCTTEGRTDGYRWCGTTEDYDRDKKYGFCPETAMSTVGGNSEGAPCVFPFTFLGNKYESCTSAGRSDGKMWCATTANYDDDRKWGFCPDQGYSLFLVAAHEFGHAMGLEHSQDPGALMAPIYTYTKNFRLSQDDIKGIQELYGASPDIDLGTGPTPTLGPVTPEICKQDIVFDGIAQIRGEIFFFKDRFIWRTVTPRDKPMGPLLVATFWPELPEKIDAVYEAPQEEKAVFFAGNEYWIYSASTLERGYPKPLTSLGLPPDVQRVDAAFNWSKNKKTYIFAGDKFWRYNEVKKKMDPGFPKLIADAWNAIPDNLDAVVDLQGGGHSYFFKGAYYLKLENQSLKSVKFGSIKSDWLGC

MMP-1 = target: T3, MMP-1 (Homo sapiens, UniProt P03956); assay: MMP1 Inhibitor Screening Assay Kit (ab139443), colorimetric thiopeptide substrate, OD412; settings: for inhibition at 5 µM / remaining activity at 5 µM: T-23~34 at 5 uM; for inhibition at 5 µM: read-out: MMP-1 (%) (inhibitory efficacy, high concentration); for remaining activity at 0.5 µM / remaining activity at 5 µM: remaining enzyme activity; for remaining activity at 0.5 µM: untreated group = 100%, n=2; for remaining activity at 5 µM: read-out: MMP-1 (%) (enzyme activity, high concentration)
T3 construct: purchased Abchem (so in the source)
T3 sequence (P03956 100-269 limits assumed): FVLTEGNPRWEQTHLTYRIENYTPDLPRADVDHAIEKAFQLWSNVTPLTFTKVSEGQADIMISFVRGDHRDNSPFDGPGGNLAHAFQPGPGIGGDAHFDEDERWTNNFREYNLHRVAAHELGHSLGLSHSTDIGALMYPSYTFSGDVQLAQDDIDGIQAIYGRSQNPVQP
Procedure: Enzyme activity (%) at the same concentration was compared with treatment with 0.5 µM MMP-1 activity and 50 nM MMP-2 and MMP-9 activity (n=2). Here, enzyme activity (%) refers to the enzyme activity (%) of the experimental group when the untreated group is considered to have 100% enzyme activity.
To evaluate the effect of the new compound on the enzyme activity, the color change was measured by following the provided protocol using a kit sold by Abchem as follows.
As MMP activity increases, the substrate is decomposed and the OD412 level increases. Therefore, the change in OD412 level (OD value) per minute was measured and the value was obtained according to the enzyme activity calculation formula below. […] (ε=13,600 M^-1cm^-1 above pH 6.0)
New compound enzyme activity(%) = (Vnew compound/Vuntreated group)*100 [formula] V = change in OD value per minute

MMP-2 [4] = target: T2, MMP-2; assay: MMP2 Inhibitor Screening Assay Kit (ab139446), colorimetric thiopeptide substrate, OD412; settings: compound at 50 nM; for remaining activity at 0.05 µM: remaining enzyme activity, untreated group = 100%, n=2
Procedure: Enzyme activity (%) at the same concentration was compared with treatment with 0.5 µM MMP-1 activity and 50 nM MMP-2 and MMP-9 activity (n=2). Here, enzyme activity (%) refers to the enzyme activity (%) of the experimental group when the untreated group is considered to have 100% enzyme activity. To evaluate the effect of the new compound on the enzyme activity, the color change was measured by following the provided protocol using a kit sold by Abchem as follows. […] Therefore, the change in OD412 level (OD value) per minute was measured and the value was obtained according to the enzyme activity calculation formula below. […] (ε=13,600 M^-1cm^-1 above pH 6.0) New compound enzyme activity(%) = (Vnew compound/Vuntreated group)*100 [formula] V = change in OD value per minute

T1 sequence (P14780 94-707): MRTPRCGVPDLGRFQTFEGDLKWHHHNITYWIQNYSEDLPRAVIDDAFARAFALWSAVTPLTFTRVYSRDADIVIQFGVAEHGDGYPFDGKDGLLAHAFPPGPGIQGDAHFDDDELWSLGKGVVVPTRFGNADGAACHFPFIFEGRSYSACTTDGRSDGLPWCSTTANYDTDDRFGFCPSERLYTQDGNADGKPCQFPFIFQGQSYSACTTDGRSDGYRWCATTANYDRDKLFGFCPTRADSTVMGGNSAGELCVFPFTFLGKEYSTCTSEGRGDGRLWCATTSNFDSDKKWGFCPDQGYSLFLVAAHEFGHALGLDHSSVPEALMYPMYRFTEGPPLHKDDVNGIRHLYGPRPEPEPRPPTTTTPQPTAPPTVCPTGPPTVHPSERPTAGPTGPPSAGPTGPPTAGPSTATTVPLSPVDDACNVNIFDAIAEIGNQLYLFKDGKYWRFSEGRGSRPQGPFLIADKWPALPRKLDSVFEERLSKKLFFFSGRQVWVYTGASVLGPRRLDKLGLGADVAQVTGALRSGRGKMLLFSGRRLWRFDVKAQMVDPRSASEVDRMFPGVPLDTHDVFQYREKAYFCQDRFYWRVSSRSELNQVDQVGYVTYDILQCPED

Compound	inhibition at 0.5 µM (MMP-9 [1])	remaining activity at 0.5 µM (MMP-9 [1])	remaining activity at 0.05 µM (MMP-9 [2])	inhibition at 0.5 µM (MMP-2 [3])	remaining activity at 0.5 µM (MMP-2 [3])	inhibition at 5 µM (MMP-1; inhibition)	remaining activity at 0.5 µM (MMP-1; compound at 0.5 uM)	remaining activity at 5 µM (MMP-1)	remaining activity at 0.05 µM (MMP-2 [4])	inhibition at 0.5 µM (MMP-1; inhibition, compound at 0.5 uM, read-out: MMP-1 (%) at 0.5 uM (inhibitory activity))	inhibition at 0.05 µM (MMP-2 [4]; inhibition, read-out: MMP-2 (%) at 50 nM (inhibitory activity))	inhibition at 0.05 µM (MMP-9 [2]; inhibition, read-out: MMP-9 (%) at 50 nM (inhibitory activity))
CC(C)(C)c1ccc(S(=O)(=O)N2CCCC2C(=O)NO)cc1 (stereo not drawn) [T-28, 1-((4-(tert-butyl)phenyl)sulfonyl)-N-hydroxypyrrolidine-2-carboxamide]	0%	100%	100%	0%	100%	0%	100%	100%	100%	–	–	–
CC(=O)Nc1ccc(S(=O)(=O)N2CCCCC2C(=O)NO)cc1 (stereo not drawn) [T-25, 1-((4-acetamidophenyl)sulfonyl)-N-hydroxypiperidine-2-carboxamide]	20.6%	79.4%	100%	38.3%	61.7%	14.2%	100%	85.8%	100%	0%	0%	–
O=C(NO)C1CCCN1S(=O)(=O)c1ccc(C23CC4CC(CC(C4)C2)C3)cc1 (stereo not drawn) [T-32, 1-((4-((3r,5r,7r)-adamantan-1-yl)phenyl)sulfonyl)-N-hydroxypyrrolidine-2-carboxamide]	11.9%	88.1%	100%	7.6%	92.4%	0%	100%	100%	100%	–	–	–
CC(=O)c1ccc(S(=O)(=O)N2CCCC2C(=O)NO)cc1 (stereo not drawn) [T-34, 1-((4-acetylphenyl)sulfonyl)-N-hydroxypyrrolidine-2-carboxamide]	30.1%	69.9%	100%	37.8%	62.2%	58.2%	100%	41.8%	100%	–	–	–
CCCc1ccc(S(=O)(=O)N2CCCC2C(=O)NO)cc1 (stereo not drawn) [T-33, N-hydroxy-1-((4-propylphenyl)sulfonyl)pyrrolidine-2-carboxamide]	22.2%	77.8%	100%	26.3%	73.7%	26.1%	100%	73.9%	90.5%	–	–	0%
O=C(NO)C1CCCCN1S(=O)(=O)c1ccc(C23CC4CC(CC(C4)C2)C3)cc1 (stereo not drawn) [T-23, 1-((4-((3r,5r,7r)-adamantan-1-yl)phenyl)sulfonyl)-N-hydroxypiperidine-2-carboxamide]	0%	100%	100%	0%	100%	0%	100%	100%	100%	–	–	–
